Measurements published in US20070276008A1, “Pharmaceutical formulation comprising glycine as a stabilizer” (Eisai Company Limited, priority 1997, published 2007).
Where two headings read alike, the source gives them in different places.

Assays:
[1] = Effect of storage conditions (light, temperature) on absorbance 400-650 nm; type: physicochemical; conditions: 2 mg/mL, 0.9% saline
Protocol: The effect of exposure to light and temperature was evaluated as a function of time for 0.9% saline solutions containing 2 mg/mL compound 1, with or without 10 mM glycine-NaOH buffer, was evaluated by monitoring absorbance at 400, 450, 500, 600, and 650 nm.

[2] = Glycine concentration and temperature studies: chemical stability (residual potency and impurity levels); type: physicochemical
Protocol: A, B, and C contain 7.5 mg/mL glycine, equal to 100 mM glycine. […] F is the control without glycine.

[3] = type: physicochemical
Protocol: A, B, and C contain 7.5 mg/mL glycine, equal to 100 mM glycine. D and E have 11.25 mg/mL glycine, equal to 150 mM glycine. F is the control without glycine.

[4] = pH studies: chemical (HPLC) and physical (color) stability in water for injection; conditions: for Chemical and physical stability: 24 hours
[5] = Preliminary buffer evaluation (phosphate vs glycine-NaOH); type: physicochemical
Protocol: It is desirable that the pH of solutions of compound 1 and other compounds of the invention in 5% dextrose or normal saline remain in a range near about pH 10 to provide for an acceptable use period in a clinical setting. Phosphate and glycine buffer systems were tested.
Based on this propensity to precipitate, phosphate was disqualified as a buffer for the compounds of the invention.

[6] = Discoloration on reconstitution in aqueous solutions for intravenous administration; type: physicochemical; conditions: e.g. 5% dextrose or 0.9% saline
Excerpt: It has been found by the present inventors that anti-ulcerative compounds such as compound 1 and the compounds described by general formula I below discolor when they are reconstituted, i.e., dissolved, in aqueous solutions, particularly in solutions suitable for intravenous administration, e.g., 5% dextrose or 0.9% saline. Such solutions quickly turn yellow to yellow-brown.

[7] = Reduced glycine concentration experiments: color change in 0.9% saline pH 10; type: physicochemical
Protocol: Absorption measurements were taken at the zero time point, and at 2, 4, 6, and 8 hours after dissolution. […] The glycine concentration-dependence of compound 1 discoloration was evaluated at […] after dissolution.

## COCCCOc1ccnc(C[S+]([O-])c2nc3ccccc3[nH]2)c1C (centres unmarked) [compound 1]
[1]; 10 mM glycine-NaOH, all wavelengths, temperatures, lighting conditions
  Effect of glycine-NaOH buffer on absorption: decreases absorption
[1]; with or without 10 mM glycine-NaOH
  Effect of exposure to light on color development: no detrimental effect
[1]; without glycine-NaOH buffer
  Color development with increasing storage temperature: increase in undesirable color development
[2]; 0 mM, 100 mM and 150 mM glycine
  Difference in chemical stability between glycine formulations: No substantial difference
[2]; 5° C., pH 10.5 to 11, 24 hours
  Increase in impurity levels: without measurable increases
[2]; room temperature, pH 10.5, 24 hours
  Impurities measured: > 1%
[2]; room temperature, pH 11 solution, 24 hours
  Increase in impurities: < 0.5%
[3]; 5° C. compared to room temperature
  Color formation: significantly retarded
[3]; solutions devoid of glycine, regardless of temperature
  Discoloration: discolored very quickly
[3]; solutions with greater glycine concentrations
  Discoloration: discolored more slowly
[4]; 5° C. and room temperature, 8 mg/mL in WFI
  Order of chemical and physical stability by pH: pH 11.5>pH 11>pH 10.5>pH 10>pH 9.5
[4]; pH 9.5, 8 mg/mL in WFI
  Time until solutions began to assume a yellow color: ≤ 30 min
[4]; pH 10.5, cold temperatures (5° C.)
  Chemical and physical stability: adequate
[4]; pH 10.5, room temperature
  Chemical and physical stability: marginally stable
[4]; pH 11 or greater, cold temperatures
  Stability for manufacture and handling in preparation for freeze drying: adequately stable
[5]; 50 mM phosphate buffer, compared with unbuffered solutions
  Color formation: color formation was not inhibited
[5]; 100 mM glycine/NaOH, pH above 10
  Discoloration: substantially slower
[5]; phosphate-containing plugs
  Appearance on reconstitution: hazy solutions
[5]; solutions in phosphate and glycine buffers
  Appearance after freeze-drying: white, well-formed plugs
[6]
  Color on reconstitution in aqueous solutions: discolor
[7]; 4 mg/mL, 0.9% saline pH 10, 25° C. dark, 0-8 hours, glycine-free vs 50 mM glycine
  Rate of discoloration (absorption): much greater rate
[7]; 4 mg/mL, 0.9% saline pH 10, 5, 10, 25, 50 mM glycine-NaOH, 5 hours
  Difference in absorbance spectrum between glycine concentrations: little difference
[7]; 5 mM glycine-NaOH solution, 5 hours post-dissolution
  Absorbance: noticeably higher absorbance
